{"source": "patent US6291458A", "about": "“Morpholinobenzamide salts” (AstraZeneca AB, priority 1997, dated 2001)", "key": {"[1]": {"assay": "Solubility and release rate of the base (background statement)", "type": "physicochemical", "conditions": "base form"}, "[2]": {"assay": "Solubility determination in purified water at 25° C.", "type": "physicochemical", "conditions": "HPLC assay", "protocol": "Excess of (R)-N-[5-methyl-8-(4-methylpiperazin-1-yl)-1,2,3,4-tetrahydro-2-naphthyl]- 4-morpholinobenzamide or it's corresponding salts was added to purified water. The solution was agitated overnight in a water bath, kept at 25° C. by using a thermostat (Julabo SW and U3, 60 strokes/min). The saturated solution was centrifuged and filtered through a 0.45 .quadrature.m Gelman GHP Acrodisc® 13 filter, diluted and assayed by HPLC."}, "[3]": {"conditions": "rate is different in the stomach and the intestines"}, "[4]": {"conditions": "water, salts, read-out: Solubility mg/mL (Solubility in Water at 25° C. for different salts)"}}, "note": "Like-named read-outs stand apart in the source and are kept apart here."}
{"smiles": "Cc1ccc(N2CCN(C)CC2)c2c1CCC(NC(=O)c1ccc(N3CCOCC3)cc1)C2", "note": "(racemic) [compound of formula I, N-[5-methyl-8-(4-methylpiperazin-1-yl)-1,2,3,4-tetrahydro-2-naphthyl]-4-morpholinobenzamide]", "values": [{"measurement": "pH dependence of release rate", "setting": "[1]; [3]", "value": "pH dependent"}, {"measurement": "release rate", "setting": "[1]; [3]", "value": "slow"}, {"measurement": "solubility in water", "setting": "[1]; result in words", "value": "extremely low"}]}
{"smiles": "Cc1ccc(N2CCN(C)CC2)c2c1CC[C@@H](NC(=O)c1ccc(N3CCOCC3)cc1)C2", "note": "[Base, (R)-N-[5-Methyl-8-(4-methylpiperazin-1-yl)-1,2,3,4-tetrahydro-2-naphthyl]-4-morpholinobenzamide]", "values": [{"measurement": "solubility", "setting": "[2]; water, base, read-out: Solubility in Water", "value": 0.034, "unit": "mg/mL"}]}
{"smiles": "Br.Br.Cc1ccc(N2CCN(C)CC2)c2c1CC[C@@H](NC(=O)c1ccc(N3CCOCC3)cc1)C2", "note": "[Dihydrobromide, (R)-N-[5-methyl-8-(4-methylpiperazin-1-yl)-1,2,3,4-tetrahydro-2-naphthyl]-4-morpholinobenzamide dihydrobromide]", "values": [{"measurement": "solubility", "setting": "[2]; [4]", "value": 4.6, "unit": "mg/mL"}]}
{"smiles": "Cc1ccc(N2CCN(C)CC2)c2c1CC[C@@H](NC(=O)c1ccc(N3CCOCC3)cc1)C2.O=C(O)CO", "note": "[Glycolate, (R)-N-[5-Methyl-8-(4-methylpiperazin-1-yl)-1,2,3,4-tetrahydro-2-naphthyl]-4-morpholinobenzamide Glycolate]", "values": [{"measurement": "solubility", "setting": "[2]; [4]", "value": "> 23.6", "unit": "mg/mL"}]}
{"smiles": "Cc1ccc(N2CCN(C)CC2)c2c1CC[C@@H](NC(=O)c1ccc(N3CCOCC3)cc1)C2", "note": "[L-Ascorbate, (R)-N-[5-Methyl-8-(4-methylpiperazin-1-yl)-1,2,3,4-tetrahydro-2-naphthyl]-4-morpholinobenzamide L-Ascorbate]", "values": [{"measurement": "Solubility mg/mL (Solubility in Water at 25° C. for different salts)", "setting": "[2]; salts", "value": 4.2, "unit": "mg/mL"}]}
{"smiles": "C[C@H](O)C(=O)O.Cc1ccc(N2CCN(C)CC2)c2c1CC[C@@H](NC(=O)c1ccc(N3CCOCC3)cc1)C2", "note": "[L-Lactate, (R)-N-[5-Methyl-8-(4-methylpiperazin-1-yl)-1,2,3,4-tetrahydro-2-naphthyl]-4-morpholinobenzamide L-Lactate]", "values": [{"measurement": "solubility", "setting": "[2]; salts, read-out: Solubility mg/mL (Solubility in Water at 25° C. for different salts)", "value": 18.8, "unit": "mg/mL"}]}
{"smiles": "Cc1ccc(N2CCN(C)CC2)c2c1CC[C@@H](NC(=O)c1ccc(N3CCOCC3)cc1)C2", "note": "[Salicylate, (R)-N-[5-Methyl-8-(4-methylpiperazin-1-yl)-1,2,3,4-tetrahydro-2-naphthyl]-4-morpholinobenzamide Salicylate]", "values": [{"measurement": "Solubility mg/mL (Solubility in Water at 25° C. for different salts)", "setting": "[2]; salts", "value": 0.29, "unit": "mg/mL"}]}
